Assays:
[1] = test system: differentiated β-like cells; assay: Maturation of differentiated β-like cells, glucose stimulated insulin secretion; format: cell-based, mouse; conditions: calcitriol 10 nM, 4 days; glucose 2.75 / 27.5 mM (FIG. 19)
Method: The differentiated cells were washed twice with warm PBS. After pre-incubation with Krebs-Ringer buffer at 37° C. for 90 min, the cells were incubated at 37° C. for 60 min with basal D-glucose (2.75 mM) or stimulus D-glucose (27.5 mM). Then each conditioned medium was collected to determine the insulin concentration using an insulin ELISA kit (Mercodia AB, Uppsala, Sweden). Nic-containing differentiation medium was removed from the differentiated β-like cells. A warmed maturation medium was added to the differentiated cells. The maturation medium is Dulbecco's Modified Eagle Medium (Invitrogen) with 5.75 mM D-glucose without nicotinamide (10 mM), 2% B27 (Invitrogen) and 100 μg/ml streptomycin and 100 units/ml penicillin supplemented with calcitriol (10 nM). Cultures were incubated in 10% CO2 90% air at 37° C., for 4 days.

[2] = test system: Ngn3+ islet progenitors; assay: DsRed+ cell differentiation from purified Ngn3-GFP+ progenitors (Ngn3-GFP/RIP-DsRed mice); format: cell-based, mouse; conditions: calcitriol 10 nM with or without Nic 10 mM, day 4 (FIG. 17)
Excerpt: Approximately 7,500 E15.5 [at which the number of Ngn3^+ progenitors is peaked] mouse fetuses from both MIPGFP and Ngn3-GPF/RIP-DsRed lines were used for enrichment/purification of Ngn3^+ progenitors. Mouse pancreases were dissected under a stereoscope (Olympus, Tokyo, Japan). Eleven human fetal pancreases were collected from 18-22 week-fetuses (Table 1) and minced. Both mouse and human pancreases were enzymatically dissociated into single cells under aseptic conditions. Rat anti-E-cadherin (E-cad, also known as CD324 or uvomorulin) monoclonal antibody IgG2a (Invitrogen, Carlsbad), Alexa Fluor 647 anti-E-cad (eBioscience), rat anti-integrin α6 subunit (α6, also known as CD49f) mAb IgG2a, phycoerythrin (PE) rat anti-human α6 (Becton Dickson Biosciences, San Jose), PE anti-mouse CD133 (also known as prominin I, eBioscience), biotin rabbit anti-rat immunoglobumins, allophycocyanin (APC) rat anti-mouse CD45 and APC rat anti-mouse TER119 and streptavidin APC-Cy7, streptavidin PE-Texas Red, streptavidin APC (BD Biosciences) or streptavidin Alexa Fluor 750 (Invitrogen), were used. After each incubation with antibodies, cells were washed twice with FACS buffer (0.1% bovine serum albumin in phosphate buffered saline) and finally re-suspended in this buffer containing 1 μg/ml propidium iodide (PI) or 4′,6-diamidino-2-phenylindole (DAPI) for sorting (FACSAria II, Becton Dickson Labware, Bedford). The purity of sorted cells was determined by post-sort analysis. Data presented represented cell samples with over 90% purity.
Sorted β-cell progenitor-enriched cells or Ngn3^+ β-cell progenitors were differentiated in 96-, 12- or 6-well plates (BD Labware). The basal differentiation medium is Dulbecco's Modified Eagle Medium (Invitrogen) with 5.75 or 27.5 mM D-glucose supplemented with 1% B27 (Invitrogen) and 100 μg/ml streptomycin and 100 units/ml penicillin. Growth factor-reduced Matrigel (200 μg/ml, BD Biosciences) was overlayed onto cells in the presence of various potential regulators. […]
The number of β-like cells was directly quantified under a fluorescence microscope. […]

[3] = test system: NeuroD; assay: qRT-PCR of genes in matured insulin-secreting cells; format: cell-based, mouse; conditions: β-like cells treated with calcitriol
Method: Real time quantitative RT-PCR analysis was carried out using power SYBR Green PCR Master Mix and SYBR® Green Cells-to-Ct™ Kits purchased from Applied Biosystems (Foster City, USA). cDNA was amplified by PCR: 95° C. for 10 min, followed by 40 cycles of 95° C. for 15 sec and 60° C. for 1 min. The number of cycles of threshold (Ct) was measured with an ABI Prism 7900HT Sequence Detection System (Applied Biosystems) or a Rotor-Gene RG-3000 (Corbet Research, Sydney, Australia). All quantifications (ΔCt) were normalized with the internal 18s rRNA level (2^−Δct). Nic-containing differentiation medium was removed from the differentiated β-like cells. A warmed maturation medium was added to the differentiated cells. The maturation medium is Dulbecco's Modified Eagle Medium (Invitrogen) with 5.75 mM D-glucose without nicotinamide (10 mM), 2% B27 (Invitrogen) and 100 μg/ml streptomycin and 100 units/ml penicillin supplemented with calcitriol (10 nM). Cultures were incubated in 10% CO2 90% air at 37° C., for 4 days.

[4] = test system: MIN6 cells; assay: Glucose stimulated insulin secretion in highly passaged MIN6 cells; format: cell-based, mouse; conditions: FIG. 20, 21
Method: The differentiated cells were washed twice with warm PBS. After pre-incubation with Krebs-Ringer buffer at 37° C. for 90 min, the cells were incubated at 37° C. for 60 min with basal D-glucose (2.75 mM) or stimulus D-glucose (27.5 mM). Then each conditioned medium was collected to determine the insulin concentration using an insulin ELISA kit (Mercodia AB, Uppsala, Sweden). MIN6 cells were routinely maintained in a published protocol which contains Dulbecco's modified Eagle's medium (DMEM) containing 25 mM glucose, supplemented with 10% fetal calf serum, 2 mM L-glutamine, 25 mM Hepes, and 285 μM 2-mercaptoethanol. MIN6 cells presented in this study were at passages 30-40 (low passage, LP) or passages 60-70 (high passage, HP). All assays used MIN6 grown to 70-80% confluence unless otherwise stated.

[5] = versus calcitriol; cited from earlier work

Compound | maturation of differentiated β-like cells (GSIS) [1] | β-cell differentiation of Ngn3+ islet progenitors (number of DsRed+ cells) [2] | NeuroD expression [3] | glucose stimulated insulin secretion (GSIS) in dedifferentiated, highly passaged MIN6 cells [4] | hypercalcaemic effect, fold less [5] [fold]
C=C1/C(=C\C=C2/CCC[C@]3(C)[C@@H]([C@H](C)CCCC(C)(C)O)CC[C@@H]23)C[C@@H](O)C[C@@H]1O [Calcitriol, 1, 25 (OH)2 vitamin D3] | promoted the maturation | does not promote β-cell differentiation | further up-regulated | partially restores GSIS | 
C[C@H](CC#CC(C)(C)O)[C@H]1CC[C@@H]2/C(=C/C=C3C[C@@H](O)C[C@H](O)C3)CCC[C@@]21C [Inecalcitol, 19-nor-14-epi-23-yne calcitriol] |  |  |  |  | 480

From US10568913B2, “Method for generating mature β-like cells” (The University of Western Australia, priority 2013, dated 2020)
